Laboratory results from patent US20190070170A1, “METHOD OF S[…]-1” (Macau University of Science and Technology, priority 2017, published 2019).

Tests used:
TXA2 = TXA2 level in culture supernatants of LPS-activated rat peritoneal macrophages (ELISA); assay type: cell-based; conditions: LPS-stimulated rat peritoneal macrophages, culture supernatant
Description: Sprague-Dawley (SD) rats from the University of Hong Kong were housed in cages with free access to food and water. Peritoneal macrophages of SD rats were isolated as described in Liu J. et al., Pharmacological research 2016, 111:303-315. Briefly, untreated rats were sacrificed and after laparotomy, about 50 ml cold sterile Hank's balanced salt solution (HBSS) was used to lavage the peritoneal cavity at twice, and then the peritoneal lavage fluid was collected and centrifuged at 1500 rpm for 10 min. The cell pellets was suspended at a density 1.5×10^6 cells/ml in pre-hearted DMEM medium with 10% heat-inactivated FBS, penicillin G (100 units/ml), streptomycin ([…]), and L-glutamine (2 mM), followed by seeding in 6-well plates at a density of 4.5×10^6 cells and incubation for 2 h. Then the medium were discarded to remove the non-adherent cells. The adherent cells were further washed for two times with pre-heated DMEM medium to remove floating cells. Next, cells were pre-treated with various concentration of SIN for 1 h, followed by stimulation with LPS (1 μg/ml).
RAW264.7 cells and rat peritoneal macrophages were seeded in a 96-well plate at density of 1.4×10^4 and 1.5×10^5 cells, respectively. […] The optical density was measured at 570 nm against a reference wavelength of 650 nm using a microplate UV/VIS spectrophotometer (Tecan, Mannedorf, Switzerland). […]

mPGES-1 = mPGES-1 mRNA level in LPS-activated rat peritoneal macrophages (qRT-PCR); assay type: cell-based; conditions: SIN 1 h, LPS 12 h
Description: Peritoneal macrophages were cultured in 6-well plates and pre-treated with the indicated concentration of SIN for 1 h, followed by LPS stimulation for another 12 h. RNA was isolated from rat peritoneal macrophages using the Nucleospin RNA kit from Macherey-Nagel (Duren, Germany) according to the manufacturer's instructions. RNA concentration derived from each sample was assessed by NanoDrop UV Spectrophotometer from Thermo Scientific (Asheville, N.C., USA). RNA (1 μg) was reverse transcripted using the transcriptor universal cDNA master reagents from Roche Applied Science (Mannheim, Germany). Gene expression quantification was performed by a high-productivity real-time quantitative PCR ViiA™ 7 machine using SYBR Green reagents from Roche Applied Science (Mannheim, Germany) according a standard protocol recommended by the manufacturer and the cycling parameters were as followed: uracil removal incubation (50° C., 2 min), polymerase activation (95° C., 10 min), 40 cycles of denaturation (95° C., 15 s) and annealing/extension (60° C., 30 s) and a melt curve stage (95° C., 15 s, 60° C., 1 min and 95° C., 15 s).
Rat primers used in the research are listed as follows:
• The levels of gene expression were quantitated using the 2(−Delta Delta C(T)) method. […]

PGE2 = PGE2 production in LPS-stimulated RAW264.7 cells (ELISA); assay type: cell-based, mouse; conditions: SIN 160, 320 or 640 μM or 0.5 μM DEX 1 h, then LPS 100 ng/ml 18 h
Description: RAW264.7 and A549 cell lines were obtained from American Type Culture Collection (ATCC, Manassas, Va., USA) and maintained in DMEM (RAW264.7) or 1640 (A549) medium containing 10% FBS (Gibco-BRL, Grand Island, N.Y., USA) and antibiotics at 37° C. in a humidified atmosphere containing 5% CO2. RAW264.7 cells were plated in 6-well plates at a density of 4×10^5 cells and incubated for 24 h, then the cells were pretreated with different concentrations of SIN for 1 h before stimulating with LPS (100 ng/ml). A549 cells were seeded in 6-well plates at a density of 1×10^5 cells and incubated for 24 h, followed by pretreatment with SIN. A549 cells were then stimulated by IL-1β (1 ng/ml).
RAW264.7 cells and rat peritoneal macrophages were seeded in a 96-well plate at density of 1.4×10^4 and 1.5×10^5 cells, respectively. Various concentration of SIN was added to the cells for 1 hour before LPS stimulation. After stimulation with LPS for 18 h (RAW264.7 cells) or 24 h (rat peritoneal macrophages), MTT solution was added to each well and incubated for another 4 hours. 100 μl 10% SDS-HCl solution was added to each well for overnight to dissolve the formazan dye. The optical density was measured at 570 nm against a reference wavelength of 650 nm using a microplate UV/VIS spectrophotometer (Tecan, Mannedorf, Switzerland). […]

[1] = system: collagen-induced arthritis; test: Collagen-II induced arthritis (CIA) in DBA/1 mice; assay type: in vivo; conditions: CIA DBA/1 mice; SIN 100 mg/kg i.p.
Description: Female DBA/1 mice (8-9 weeks old) were purchased from Shanghai SiLaike (SLAC) Laboratory Animal Company (Shanghai, China) and fed with a chow diet and water at room temperature. Equal volume of complete Freuend's adjuvant (CFA) and Bovine Type II Collagen (CII) were mixed and emulsified using a homogenizer (13,000 rpm) on ice. On day 0, DBA/1 mice were immunized by injecting 50 μl of CII in CFA in the tail, approximately 2 cm from the base of the tail. After injection, on day 18, mice with one or more than one paw inflamed were chosen and randomly divided into model group, SIN (100 mg/kg, i.p.) treatment group and MTX (10 mg/kg/week, p.o) treatment group, the mice without immunization were used as normal control. On day 21, these chosen mice were boosted through injecting the same volume of CII in IFA same as the day 0 immunization procedure. The incidence of joint swelling in each group was recorded every two days since drug treatment. Paw thickness (at the ankle joints of the hind paws) of each mouse was obtained by using vernier caliper to record the severity of paw swelling.
Arthritis score of each paw was evaluated every two days during experiment with the following criteria: • 0: no evidence of erythema and swelling; • 1: erythema and mild swelling confirmed to the tarsals or ankle joint; • 2: erythema and mild swelling extending from the ankle to the tarsal joints; • 3: erythema and moderate swelling extending from the ankle to metatarsal joints; and • 4: erythema and severe swelling encompass the ankle, foot and digits, or ankylosis of the limb.
The score of each paw was summed for a score of 0-16 for each mouse. Mice were then sacrificed and hind paws were removed and freshly frozen in liquid nitrogen and stored at −80° C. until used.

COC1=C[C@@H]2[C@@H]3Cc4ccc(OC)c(O)c4[C@]2(CCN3C)CC1=O [SIN, sinomenine]
level of TXA2 (TXA2): no significant influence | mPGES-1 gene expression (mRNA) (mPGES-1): significantly and dose-dependently inhibited | PGE2 production (PGE2): significant inhibition of PGE2 production in a dose dependent manner | arthritic scores (total of four paws) [1]: decreased | average thickness of the inflamed hind paws [1]: decreased average thickness | onset of joint swelling (incidence of arthritis) [1]: delayed the onset of the joint swelling
